{"source": "paper PMC7924852", "about": "“The Emericellipsins A–E from an Alkalophilic Fungus Emericellopsis alkalina Show Potent Activity against Multidrug-Resistant Pathogenic Fungi” (Journal of Fungi, 2021)", "key": {"[1]": {"system": "A. niger 1133 m", "experiment": "Disc-diffusion antifungal assay", "format": "cell-based, Aspergillus niger", "settings": "40 µg/disc, pathogenic clinical isolate"}, "[2]": {"system": "A. fumigatus VKM F-37", "experiment": "Disc-diffusion antifungal assay", "format": "cell-based, Aspergillus fumigatus", "settings": "40 µg/disc"}, "[3]": {"system": "A. fumigatus 390 m", "experiment": "Disc-diffusion antifungal assay", "format": "cell-based, Aspergillus fumigatus", "settings": "40 µg/disc, pathogenic clinical isolate"}, "[4]": {"system": "Candida albicans 1402", "experiment": "Broth microdilution MIC and MFC (CLSI)", "format": "cell-based"}, "[5]": {"system": "clinical yeast isolates (Candida, Cryptococcus)", "experiment": "Broth microdilution MIC/MFC, pathogenic multidrug yeast strains", "format": "cell-based", "settings": "isolates of C. albicans, C. glabrata and C. neoformans"}, "[6]": {"system": "human erythrocytes", "experiment": "Hemolytic activity", "format": "cell-based", "settings": "for hemolytic activity (in words): concentrations of 0–20 μM", "method": "Erythrocytes were isolated from the peripheral blood of healthy donors after incubation at 4 °C for 2–3 h. All the donors are males, 35–38 years old. All of them have approved to collect blood samples, and the authors have permissions filled. All the blood samples have been destroyed after the experiments finished. The red blood cell suspension (100 μL) was pelleted, washed twice with saline, then the pellet was resuspended in 500 μL saline or distilled water (positive control of hemolysis). The compounds were added (final concentration of 20 μM). The samples were incubated for 1 h at 37 °C and centrifuged at 2000 rpm for 1.5 min. The OD of supernatants was measured on a Multiscan spectrophotometer FC (Thermo Scientific, Waltham, MA, USA) at a wavelength of 540 nm. The percent hemolysis was calculated relative to the positive control, taken as 100%.\nErythrocytes were isolated from the human blood: On the day of the study, blood was taken from the donor’s cubital vein into a test tube with an anticoagulant. The blood was incubated at 4 °C for 2‒3 h. A suspension of erythrocytes (100 μL) was diluted with a physiological buffer (pH 7.2) to a total volume of 500 μL. Solutions of the test substances with an initial concentration of […] (DMSO) were diluted with a PBS buffer (1:10). The resulting solutions were introduced into Eppendorf tubes in the amounts required to create the studied concentration (5, 10, or 20 μM). A mixture of PBS with erythrocytes was added to a total volume of 200 μL. The control (C) was a mixture of erythrocytes with H2O (100% of hemolysis). The intact control solution (I) was a mixture of erythrocytes with the PBS and solvent (DMSO). The antibiotic gramicidin S (Gram S) was used as a control sample with active hemolysis. The mixture was incubated for 1 h at 37 °C. The measurement of the optical density of the supernatants was carried out on a BioTek ELx800 automatic microplate photometer (USA) at 570 nm. The optical density of the liquid above the sediment in the control sample with H2O was taken as 100%."}}}
{"substance": "Methyldecanoyl-MePro-AHMOD-Ala-Aib-Ile-Iva-βAla-Alaol-Glyol [EmiA, emericellipsin A, nonribosomal lipopeptaibol, major compound of E. alkalina VKPM F1428]", "values": [{"measurement": "Zone of Inhibition", "setting": "[1]", "result": "18 ± 0.27", "unit": "mm"}, {"measurement": "Zone of Inhibition", "setting": "[2]", "result": "20 ± 0.3", "unit": "mm"}, {"measurement": "Zone of Inhibition", "setting": "[3]", "result": "20 ± 0.40", "unit": "mm"}, {"measurement": "MFC", "setting": "[4]; Candida albicans 1402, lowest concentration causing 95% death, plated on PDA agar", "result": 4, "unit": "µg/mL"}, {"measurement": "MIC", "setting": "[4]; Candida albicans 1402 clinical isolate, RPMI 1640 pH 7.0, 35 °C, 24 h", "result": 2, "unit": "µg/mL"}, {"measurement": "MIC/MFCs range", "setting": "[5]", "result": "0.25 to 4", "unit": "µg/mL"}, {"measurement": "hemolysis", "setting": "[6]; 20 μM, 1 h, 37 °C, relative to H2O control = 100%, OD 540 nm or 570 nm, triplicate, mean", "result": "approximately 12.6%"}, {"measurement": "hemolytic activity (in words)", "setting": "[6]", "result": "no hemolytic activity"}, {"measurement": "hemolytic activity (in words)", "setting": "[6]; listed as Emericellipsin A", "result": "negligible hemolytic activity"}]}
